Like-named read-outs stand apart in the source and are kept apart here.
Key:
BetaD5 [1] = test: Cell cycle analysis by flow cytometry; format: cell-based, mouse; conditions: IC50 concentration, 96 h
Method in brief: (§1)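 Read-out is DNA content by flow cytometry using a commercial cell-cycle staining kit. Samples pass sequentially through kit solutions A (10 min, room temperature), B and C, the last step at 4°C protected from light, and are then held on ice in the dark.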

GammaA3 [2] = test: Cell cycle analysis by flow cytometry; format: cell-based, mouse; conditions: IC50 concentration, 96 h
Method in brief: as §1

GammaD12 [3] = test: Cell cycle analysis by flow cytometry; format: cell-based, mouse; conditions: IC50 concentration, 96 h
Method in brief: as §1

BetaD5 [4] = test: MTS cell viability assay; format: cell-based, mouse
Method in brief: (§2)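 MTS read-out, A490 after 1 h reagent incubation. Exposure to dual kinase inhibitors vs 0.2% DMSO vehicle: 24 h or 96 h, triplicate wells. Culture: DMEM, 10% FCS, 4 mmol/l L-glutamine, 37°C/5% CO2.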

GammaA3 [5] = test: MTS cell viability assay; format: cell-based, mouse
Method in brief: as §2

GammaD12 [6] = test: MTS cell viability assay; format: cell-based, mouse
Method in brief: as §2

A2C12 [7] = test: MTS cell viability assay; format: cell-based, mouse
Method in brief: as §2

HepG2 = test: Cell cycle analysis by flow cytometry; format: cell-based, human; conditions: IC50 concentration, 96 h
Method in brief: as §1

CaCo2 = test: Cell cycle analysis by flow cytometry; format: cell-based, human; conditions: IC50 concentration, 96 h
Method in brief: as §1

A549 = test: Cell cycle analysis by flow cytometry; format: cell-based, human; conditions: IC50 concentration, 96 h
Method in brief: as §1

[8] = tested on: human and murine cell lines; test: Western blot, statements over human and murine cell lines; format: cell-based; conditions: lung cancer cell lines; IC50 concentration, 96 h
Description: (§3) For the Western Blot analysis, cells were rinsed and lysed as previously described. An amount of 25 µg protein was used for SDS-PAGE. Antibodies for c-Abl (sc-131), Actin (sc-1616), Cdc2-p34 (sc-8395), EPS15 (sc-1840), FAK (sc-558), c-Fos (sc-52), p38 (sc-7972), p53 (sc-6243) and STAT5 (sc-835x) were obtained from Santa Cruz (Santa Cruz Biotechnology, Heidelberg, Germany), while c-Src (2109) and phospho-Src Y416 (2101) were purchased from Cell Signaling (Cell Signaling Technology, Frankfurt a. M., Germany). The EGFR (06-847), phospho-EGFR Y992 (07-821) and phospho-EGFR Y1045 (04-284) stem from Upstate (Upstate, Schwalbach, Germany) and the hnRNP-K (A300-676A) from Bethyl Labs (Bethyl Laboratories, Montgomery, Texas, USA). Finally p73 (IMG-246) was supplied by Imgenex (Imgenex, Hamburg, Germany). Depending on the primary antibody the secondary antibodies were either horseradish peroxidase-conjugated anti-mouse (AP 160P), anti-rabbit (AP 132P) or anti-sheep (AP 147P) (Chemicon, Schwalbach, Germany).
(§4) Semi-quantitative analysis were carried out with Kodak 1D Image Analysis Software in reference to the vehicle treated control cells (see supplementary table S7).

GammaA3 [9] = test: Western blot, semi-quantitative protein expression; format: cell-based, mouse
Description: as §3, §4

GammaD12 [10] = test: Western blot, semi-quantitative protein expression; format: cell-based, mouse
Description: as §3, §4

A2C12 [11] = test: Western blot, semi-quantitative protein expression; format: cell-based, mouse
Description: as §3, §4

[12] = 24 h, read-out: Calculated IC50 after single treatment for 24 h
[13] = 96 h, read-out: Calculated IC50 after daily treatment for 96 h

Fc1ccccc1CNc1ncnc2c1cnn2CC(Cl)c1ccc(Br)cc1 (stereo not drawn) [Si162]
Cells in G1 phase (BetaD5 [1]): 22.8% | Cells in G2 phase (BetaD5 [1]): 42.8% | Cells in S phase (BetaD5 [1]): 34.5% | Cells in G1 phase (GammaA3 [2]): 40.3% | Cells in G2 phase (GammaA3 [2]): 31.5% | Cells in S phase (GammaA3 [2]): 28.1% | Cells in G1 phase (GammaD12 [3]): 24.1% | Cells in G2 phase (GammaD12 [3]): 12.4% | Cells in S phase (GammaD12 [3]): 63.5% | IC50 (BetaD5 [4]; [12]): 8.3 ± 1.2 µM | IC50 (BetaD5 [4]; [13]): 6.4 ± 0.5 µM | IC50 (GammaA3 [5]; [12]): 13.1 ± 1.1 µM | IC50 (GammaA3 [5]; [13]): 6.4 ± 0.4 µM | IC50 (GammaD12 [6]; 96 h, read-out: IC50 (MTS) after treatment for 96 h): 0.8 µM | IC50 (GammaD12 [6]; MTS, 24 h, read-out: Calculated IC50 after single treatment for 24 h): 11.6 ± 1.3 µM | IC50 (A2C12 [7]; [12]): 17.6 ± 1.2 µM | IC50 (A2C12 [7]; [13]): 2.1 ± 0.2 µM | Cells in G1 phase (HepG2): 17.8% | Cells in G2 phase (HepG2): 63% | Cells in S phase (HepG2): 19.3% | Cells in G1 phase (CaCo2): 41.3% | Cells in G2 phase (CaCo2): 12.3% | Cells in S phase (CaCo2): 46.4% | Cells in G1 phase (A549): 8.5% | Cells in G2 phase (A549): up to 72.3% | Cells in S phase (A549): 19.2% | Cells in G2 phase (A549; listed as Si 162): 72.3% | Repression of FAK protein [8]: up to 50% | Actin protein expression (GammaA3 [9]): 83 | EGFR Y992-p protein expression (GammaA3 [9]): 77 | EGFR Y1045-p protein expression (GammaA3 [9]): 69 | EGFR protein expression (GammaA3 [9]): 1 | EPS15 protein expression (GammaA3 [9]): 90 | FAK protein expression (GammaA3 [9]): 111 | STAT5 protein expression (GammaA3 [9]): 46 | c-Abl protein expression (GammaA3 [9]): 1.79 | c-Src Y416-p protein expression (GammaA3 [9]): 205 | c-Src protein expression (GammaA3 [9]): 21 | hnRNP-K protein expression (GammaA3 [9]): 5 | p38 protein expression (GammaA3 [9]): 64 | p53 protein expression (GammaA3 [9]): 323 | Actin protein expression (GammaD12 [10]): 91 | EGFR Y992-p protein expression (GammaD12 [10]): 237 | EGFR Y1045-p protein expression (GammaD12 [10]): 309 | EGFR protein expression (GammaD12 [10]): 65 | EPS15 protein expression (GammaD12 [10]): 179 | FAK protein expression (GammaD12 [10]): 108 | STAT5 protein expression (GammaD12 [10]): 82 | c-Abl protein expression (GammaD12 [10]): 195 | c-Fos protein expression (GammaD12 [10]): 123 | c-Src Y416-p protein expression (GammaD12 [10]): 105 | c-Src protein expression (GammaD12 [10]): 56 | hnRNP-K protein expression (GammaD12 [10]): 85 | p38 protein expression (GammaD12 [10]): 43 | p53 protein expression (GammaD12 [10]): 154 | Actin protein expression (A2C12 [11]): 99 | EGFR Y992-p protein expression (A2C12 [11]): 16 | EGFR Y1045-p protein expression (A2C12 [11]): 0.417 | EGFR protein expression (A2C12 [11]): 23 | EPS15 protein expression (A2C12 [11]): 104 | FAK protein expression (A2C12 [11]): 52 | STAT5 protein expression (A2C12 [11]): 34 | c-Abl protein expression (A2C12 [11]): 50 | c-Fos protein expression (A2C12 [11]): 60 | c-Src protein expression (A2C12 [11]): 121 | hnRNP-K protein expression (A2C12 [11]): 60 | p38 protein expression (A2C12 [11]): 20 | p53 protein expression (A2C12 [11]): 131 | p73 protein expression (A2C12 [11]): 40
